The record followed here is PubChem BioAssay (NCI).

Each structure is given as a SMILES string.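 Results reflect a 48-hour exposure of cells in 96-well plates to compound at five concentrations. GI50: concentration for 50% inhibition of growth. The concentration for full growth arrest is given as TGI.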 Where only a bound is given, the exact number is not on record here.

Holding throughout (assay): growth of human tumour cells (NCI), 48 h
Test [1] relates to M14 melanoma.
In test [2] the test system is SNB-75 CNS.
In test [3] the test system is CAKI-1 renal.
The subject of test [4] is ACHN renal.
Test [5] concerns HOP-92 NSCLC.
Test [6] has as its system SNB-19 CNS.
For test [7], the system named is NCI-H460 lung.
Test [8] concerns RPMI-8226 leukemia.
In test [9] the test system is MDA-MB-435.
In test [10] the test system is HL-60(TB) leukemia.

On to `CCS(=O)(=O)N1CCN(c2ccc(Nc3ncc(C(N)=O)c(NC4CC4)n3)cc2)CC1`, for which the GI50 is 3.23 µM in [1]; 2.46 µM in test [2]; 5.46 µM in [3]; 12.5 µM in test [4]; 4.9 µM in test [5]; 38 µM in test [6]. In addition, the GI50 in test [7] was 15.3 µM; in test [8], 2.16 µM; in [9] it was 5.6 µM. For the same compound, the TGI was 69 µM in test [1]; 9.53 µM in test [2]; 28.5 µM in test [3]; 82.8 µM in test [4]; above 100 µM in test [5]; above 100 µM in test [6]. Besides, the TGI in test [7] was 59.9 µM; in test [8], 9.82 µM; in [9], above 100 µM.
On to `CCOP(=O)(OCC)C(NC(c1ccccc1)c1ccccc1)c1ccc(C(C)C)cc1` (configuration not stated), for which the GI50 in [1] was 2.13 µM; in test [2] it was 5.28 µM; in [3] it was 3.23 µM; in test [4], 2.64 µM; in [5], 1.97 µM; in [6] it was 26.6 µM. The GI50 in [7] was 5.91 µM; in test [8], 2.65 µM; in test [9], 3.71 µM. Further, the TGI in test [1] is 4.99 µM; in test [2] it was 25.9 µM; in test [3], 13.1 µM; in test [4] it was 7.27 µM; in test [5], 11 µM; in [6] it was above 100 µM. Besides, the TGI in [7] was above 100 µM; in test [8], 9.99 µM; in [9], 11.6 µM.
As for `FC(F)(F)c1nc(Br)[nH]c1C(F)(F)F`, the TGI in test [1] was above 100 µM; in [2] it was above 100 µM; in test [3], above 100 µM; in [4], above 100 µM; in test [5], 71.7 µM; in test [6], above 100 µM. Further, the TGI in test [7], in [10] and in test [8] was above 100 µM throughout.
With `CCSCCCC(=O)O`, the TGI in test [1], in test [2], in test [3], in [4], in test [6] and in test [10] was above 100 µM in each case. For the same compound, the TGI in test [8] and in [9] was above 100 µM throughout.
Regarding `CCOC(=O)CCn1cnc(N)n1`, the TGI in test [1], in test [2], in test [3], in test [4], in test [5] and in test [6] was above 100 µM throughout. In addition, the TGI in test [7], in [10] and in [8] was above 100 µM each time.
Turning to `CNC(=O)NCCN1N=C(C)/C(=C\c2ccccc2)CC1=O`, the TGI in test [1], in [2], in test [3], in test [4], in test [5] and in [6] was above 100 µM each time. The TGI in test [7], in [10] and in test [8] was above 100 µM in each case.
Consider `O=C(O)c1[nH]c2c([N+](=O)[O-])cc([N+](=O)[O-])cc2c1C(=O)O`, for which the TGI in test [1], in test [2], in [3], in [4], in test [5] and in test [6] was above 100 µM each time. Besides, the TGI in test [7], in test [10] and in test [9] was above 100 µM each time.
As for `Cc1ccc2c(c1)C(O)(c1ccccc1)CCS2` (configuration not stated), the TGI in [1] was 66.9 µM; in test [2], above 100 µM; in [3], 53.6 µM; in [4] it was 62.6 µM; in [5] it was 77.9 µM; in [6], above 100 µM. The TGI is above 100 µM in test [7], 89.6 µM in [10] and 73.2 µM in [9].
For the compound `CC(=N/NC(N)=S)/C(C)=N/NC(N)=S`, the TGI in test [1], in test [2], in test [4], in [6], in test [7] and in [10] was above 100 µM each time. Moreover, the TGI in [8] and in [9] was above 100 µM each time.
As for `CCOC(=O)c1cc2c(n1Cc1cc(OC)cc(OC)c1)-c1oncc1CC2`, the GI50 in test [1] is 0.163 µM; in test [2], 0.111 µM; in test [3], 0.102 µM; in test [4] it was 2.22 µM; in [5], 45.2 µM; in test [6], 0.544 µM. In addition, the GI50 was 0.139 µM in [7], 0.0634 µM in test [10] and 0.354 µM in test [8]. Also, the TGI in [1], in test [2], in test [3], in [4], in test [5] and in test [6] was above 100 µM in each case. In addition, the values for the TGI in test [7], in test [10] and in [8] were above 37.8 µM, 1.15 µM and above 35.4 µM, respectively.
As for `CCOC(=O)c1cc2c(n1Cc1ccccc1OC)-c1oncc1CCC2`, the GI50 in test [1] is 3.67 µM; in test [3], 3.51 µM; in test [4] it was 16.6 µM; in [5], 0.309 µM; in [6], 64.7 µM; in test [7], 3.89 µM. In addition, the GI50 in [10] is 3.04 µM; in [8] it was 4.11 µM; in [9], 0.351 µM. Further, the TGI is above 100 µM in [1]; above 100 µM in test [3]; above 100 µM in [4]; 7.43 µM in test [5]; above 100 µM in test [6]; above 100 µM in [7]. The TGI in [10], in test [8] and in test [9] was above 100 µM in each case.
On to `Nc1ncnc2c1ncn2CCCCC(=O)O`, for which the TGI in test [1], in test [2], in test [3], in test [4], in test [5] and in test [6] was above 100 µM in each case. Also, the TGI in test [7], in [8] and in test [9] was above 100 µM throughout.
